We go through 8 compounds from patent US20100331330A1, “METHODS AND COMPOSITIONS FOR TREATING ISCHEMIC STROKE” (priority 2006, published 2010).

Some results are limits rather than exact numbers.

One data set concerns the target T1, PPARγ (Homo sapiens, UniProt P37231).
T1 sequence (P37231 1-505): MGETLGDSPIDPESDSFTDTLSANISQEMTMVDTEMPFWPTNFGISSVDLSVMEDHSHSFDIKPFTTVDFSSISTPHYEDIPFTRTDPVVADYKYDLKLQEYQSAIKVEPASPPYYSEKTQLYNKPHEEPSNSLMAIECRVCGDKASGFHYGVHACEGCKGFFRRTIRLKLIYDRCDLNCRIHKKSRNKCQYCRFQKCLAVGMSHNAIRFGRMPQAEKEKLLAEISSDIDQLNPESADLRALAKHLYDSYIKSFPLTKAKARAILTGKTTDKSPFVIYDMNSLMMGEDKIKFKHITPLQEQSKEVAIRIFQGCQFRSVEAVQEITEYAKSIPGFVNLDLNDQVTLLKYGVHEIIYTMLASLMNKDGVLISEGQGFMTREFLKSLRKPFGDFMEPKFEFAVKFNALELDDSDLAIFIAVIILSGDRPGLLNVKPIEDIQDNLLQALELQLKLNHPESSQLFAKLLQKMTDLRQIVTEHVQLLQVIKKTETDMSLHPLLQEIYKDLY
The following applies: cited from earlier work.

A further data set deals with rat cerebellum. The settings on record: injection; bacterial lipopolysaccharide and interferon-γ; cited from earlier work.
In data set [1] the test system is rodent models of cerebral ischemia. The following applies: in vivo; cited from earlier work.
In data set [2] the test system is cultured cerebellar granule neurons. The following applies: cited from earlier work.
For the next data set, the system named is hemorrhagic stroke. The settings on record: in vivo; cited from earlier work.
Data set [3] is described as follows: Physiologic parameters and cerebral blood perfusion monitoring during MCAO. The class given is in vivo, rat. The settings on record: during MCAO surgery. The method, then:
MCAO was performed as previously described. […] The rats were then allowed to recover from anesthesia.
Male Wistar rats were anesthetized with halothane. Cerebral blood perfusion was monitored during surgery and reperfusion including the time of occlusion and the time of reperfusion. A small craniotomy was made midway between the corner of the eye and the external auditory canal. A laser Doppler probe (Perimed AB, Järfälla, Sweden) was placed such that its beam passed through the craniotomy and cerebral blood perfusion measured. Once the baseline measurement was obtained, MCAO was performed. Cerebral blood perfusion was monitored at the time of MCAO and at the time of reperfusion. There were no significant differences in cerebral blood flow reductions during MCAO for any of the treatment groups. Following completion of MCAO, animals were allowed to recover and returned to their cages.

The next data set relates to ICAM mRNA. As to the kind of experiment: ICAM mRNA by real time PCR after MCAO. The format is in vivo, rat. The following applies: rosiglitazone 0.1 mg/kg or pioglitazone 1 mg/kg 24 h before and at time of 2 hour MCAO; sacrificed 24 h later.
Another data set addresses T2, PPARγ-PPRE binding (Rattus norvegicus, UniProt O88275).
T2 construct: from tissue; host or cells: rat brain nuclear extract (ipsilateral and contralateral hemisphere after MCAO)
T2 sequence (O88275 1-505): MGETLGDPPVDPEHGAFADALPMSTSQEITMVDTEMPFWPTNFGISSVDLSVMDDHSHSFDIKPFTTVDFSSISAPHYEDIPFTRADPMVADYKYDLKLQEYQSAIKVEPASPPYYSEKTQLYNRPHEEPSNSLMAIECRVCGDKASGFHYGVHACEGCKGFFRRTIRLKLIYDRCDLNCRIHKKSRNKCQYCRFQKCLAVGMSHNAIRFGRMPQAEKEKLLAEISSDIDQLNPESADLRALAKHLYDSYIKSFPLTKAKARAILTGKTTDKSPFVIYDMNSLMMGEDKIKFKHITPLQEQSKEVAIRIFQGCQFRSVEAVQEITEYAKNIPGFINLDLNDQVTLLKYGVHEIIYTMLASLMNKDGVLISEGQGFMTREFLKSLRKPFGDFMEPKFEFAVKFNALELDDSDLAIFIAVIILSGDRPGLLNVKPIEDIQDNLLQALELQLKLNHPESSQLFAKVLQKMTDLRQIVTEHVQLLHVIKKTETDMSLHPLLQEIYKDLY
T2 sequence (Q05343 1-467 partner): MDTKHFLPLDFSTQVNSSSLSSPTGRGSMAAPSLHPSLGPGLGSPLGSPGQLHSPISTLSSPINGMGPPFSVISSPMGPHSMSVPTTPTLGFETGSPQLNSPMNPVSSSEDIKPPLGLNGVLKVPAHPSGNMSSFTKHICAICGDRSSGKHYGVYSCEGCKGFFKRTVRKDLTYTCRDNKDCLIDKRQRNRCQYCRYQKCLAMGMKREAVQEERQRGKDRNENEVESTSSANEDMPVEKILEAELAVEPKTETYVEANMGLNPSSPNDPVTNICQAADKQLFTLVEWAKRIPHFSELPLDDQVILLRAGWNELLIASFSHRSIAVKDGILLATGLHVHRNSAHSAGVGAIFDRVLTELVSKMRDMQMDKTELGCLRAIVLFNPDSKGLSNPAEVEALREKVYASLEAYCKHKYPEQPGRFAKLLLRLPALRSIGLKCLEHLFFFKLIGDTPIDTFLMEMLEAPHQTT
As to the kind of experiment: Electrophoretic mobility shift assay of PPARγ DNA (PPRE) binding in brain nuclear extract. The class given is in vivo. The settings on record: both ipsilateral and contralateral hemispheres, 0.1 mg/kg 24 h before and at time of 2 hour MCAO. The method, then: Eight hours after the onset of MCAO the animals were euthanized by halothane inhalation and the brains quickly removed. Blocks of tissue 4 mm thick encompassing the rostral caudal extension of the infarct and the same area on the contralateral hemisphere were dissected free and snap frozen in liquid nitrogen. Nuclear extraction was performed and protein concentrations were determined using the Bradford method.
Ten micrograms of nuclear extract protein was incubated with 32P-labeled double stranded oligonucleotide (40 fmol) containing the PPAR responsive element sequences in rat acyl CoA oxidase promoter (5′-[…]-3′) (SEQ ID NO: 5). For competition assays, 100 fold radioinert (cold) competitor oligonucleotides were included in the reaction mixture. Interference assays with antibody to PPARγ (2 μg/reaction; SC-7273x, Santa Cruz Biotechnology,) were used to determine specificity of PPARγ-PPRE binding.
Nucleoprotein-oligonucleotide complexes were resolved electrophoretically on a 7% non-denaturing polyacrylamide gel. The gel was autoradiographed and optical density was assessed using Kodak Analysis (EDAS) 290 system.

Another data set relates to LPL mRNA. As to the kind of experiment: Lipoprotein lipase (LPL) mRNA by real time PCR after MCAO. The format is in vivo, rat. The following applies: rosiglitazone 0.1 mg/kg, pioglitazone 1.0 mg/kg; 24 h before and at time of 2 hour MCAO; tissue 24 h later. The source says:
At the time of sacrifice the animal was placed in an anesthesia chamber and exposed to 5% halothane, 30% oxygen, 65% nitrous oxide until it ceased breathing. The rat was the, processed for either histologic and immunocytochemical analysis or decapitated and the brain immediately dissected for mRNA isolation. Animals used for immunohistochemistry underwent intracardiac perfusion; the thoracic cavity was opened, a blunt needle placed through the left ventricle into the aorta and the right atrium cut. Animals were perfused through the heart, first with 0.1 M phosphate buffer and then with 4% paraformaldehyde (pH 7.4). The brain was removed from the rat and immersion fixed in 4% paraformaldehyde for an additional hour. Tissue was then transferred to 30% sucrose in phosphate buffer in order to cyroprotect it. Brains were mounted in OCT sectioning medium and frozen sections cut at either twenty microns (for infarct volume determination) or ten microns (for immunocytochemistry). Animals used in real time PCR experiments were decapitated after euthanasia and the brain quickly removed.
A 2 mm thick coronal slice of tissue through the area of maximal infarction was quickly homogenized in Trizol (Gibco BRL, Rockville, Md.). […] RNA was isolated using Life Technologies Protocol (Rockville, Md.), and cDNA synthesized from 1.5 μg of total RNA. […]

The test system of data set [4] is rats subjected to middle cerebral artery occlusion (MCAO). The settings on record: 90 minute MCAO. The source says: Male Wistar rats, 250-350 g, were obtained from Charles River (Wilmington, Mass.). Animals were housed and cared for in the Animal Resource Center and allowed free access to food and water before and after surgery. All procedures were approved by the Institutional Animal Care and Use Committee of Case Western Reserve University.
A 4.0 nylon suture with a flame rounded tip was advanced through the internal carotid artery to occlude the MCA while cerebral blood flow was monitored using laser doppler (Perimed AB, Jarfalla, Sweden). At the time of reperfusion rats were again anesthetized and the suture removed with cerebral blood flow monitoring to ensure reperfusion. Arterial blood pressure, arterial blood gases and temperature were all monitored and controlled during the length of the procedure.
Control animals were injected with 0.1 ml DMSO.
Rats were euthanized by exposure to 5% halothane until breathing ceased. They then underwent intracardiac perfusion first with PBS and then with 4% paraformaldehyde. Brains were isolated and immersion fixed in 4% paraformaldehyde overnight. Tissue was cryoprotected in 30% sucrose in PBS. Twenty micron frozen sections were collected every […] beginning at the level of the forceps minor corpus callosum and extending through the hippocampus. Sections were stained with Thionin and the area of infarction measured using Bioquant computer software (R&M Biometrics, Nashville, Tenn.) by subtracting the uninfarcted tissue in the ischemic hemisphere from the volume of the contralateral hemisphere. This method corrects for post-ischemic edema.
Male Wistar rats, 250-350 g, were obtained from Charles River (Wilmington, Mass.). […] Animals were housed and cared for in the Animal Resource Center and allowed free access to food and water before and after surgery. […] The tail artery was exposed and cannulated to measure mean arterial blood pressure and to obtain blood for blood gas measurements during surgery. Animals in which normal temperature, blood pressure and gases could not be maintained were excluded from the study. MCAO was performed as previously described. Briefly, the bifurcation of the common carotid artery was exposed. The external carotid artery was isolated and a suture placed 0.5 cm from the bifurcation. Following electrocoagulation distal to the suture the external carotid was cut between the suture and the electrocoagulated segment. A suture was applied to the common carotid artery such that it could be removed later. A loop of suture was then placed under the internal carotid artery and the artery elevated to transiently occlude blood flow. A small nick was made in the wall of the external carotid artery. Through this nick a 22 mm length of 4.0 Ethicon suture, its tip rounded by heating near a flame, was gently threaded from the external to the internal carotid artery lumen to a distance of 18 mm from the bifurcation of the carotid. The thread was held in place with a suture around the stump of the external carotid artery and the suture around the internal carotid artery released. The catheter was removed from the tail artery and both incisions were closed. The rats were then allowed to recover from anesthesia. […] The neck incision was reopened and the 4.0 Ethicon suture removed. The suture that held it in place was tightened and the suture around the common carotid artery was removed. After confirmation of reperfusion by visual inspection, the incision was closed and the animal allowed to recover.
Twenty micron frozen sections of paraformaldehyde fixed brains were collected every 1000 μm beginning at the level of the forceps minor corpus callosum and extending through the hippocampus. The slides were stained with Thionin. The sections were then trans-illuminated and the image transmitted to a computer screen.

As to `CCCCCCCCCCCCCCCCOC[C@H](COP(=O)([O-])OCC[N+](C)(C)C)OC(=O)CCCCCCCC(=O)O` [hexadecyl azelaoyl phosphatidyicholine], the dissociation constant (Kd) on PPARγ was ~40 nM.

As for Nitrolinoleic acid, on PPARγ, the Ki is > 1000 nM.

Regarding `Cc1c(C)c2c(c(C)c1O)CCC(C)(COc1ccc(CC3SC(=O)NC3=O)cc1)O2` (single isomer, unassigned; (+)) [troglitazone, (+)-5[[4-[(3,4-dihydro-6-hydroxy-2,5,7,8-tetramethyl-2H-1-benzopyran-2-yl)methoxy]phenyl]methyl]-2,4thiazolidinedione], in the data set on rat cerebellum, the “cell death in rat cerebellum” value was “reduces cell death”. Besides, in data set [1], the “neuroprotection in rodent models of cerebral ischemia” value is listed as “effective neuroprotective agents”. In addition, in data set [2], the “cell death following glutamate exposure” value was “reduces cell death” and the low-potassium-induced apoptosis entry is on record as “suppresses low-potassium-induced apoptosis”.

As for `CCCCC[C@H](O)/C=C/[C@H]1C(=O)C=C[C@@H]1C/C=C\CCCC(=O)O` [prostaglandin J2], the “benefit in hemorrhagic stroke” value with hemorrhagic stroke was “beneficial in hemorrhagic stroke”.

Take `CCCCC/C=C/C=C1/C(=O)C=C[C@@H]1C/C=C\CCCC(=O)O` [15-deoxy-D12,14-prostaglandin J2]: in the data set with rat cerebellum, the “cell death in rat cerebellum” value was “reduces cell death”. Moreover, at PPARγ, the “concentrations at which it binds PPARγ” value is 2 to 5 µM.

In the case of `CC(C)Cc1ccc(C(C)C(=O)O)cc1` (centres unmarked) [ibuprofen], in the data set on rat cerebellum, the “cell death in rat cerebellum” value is on record as “reduces cell death”.

Turning to `CN(CCOc1ccc(CC2SC(=O)NC2=O)cc1)c1ccccn1` (centres unmarked) [rosiglitazone, 5-[4-[2-(N-methyl-N-(2-pyridyl)amino]ethoxy]benzyl]thiazolidine-2,4-dione], in data set [3], the “physiologic parameters (temperature, arterial blood gases, blood pressure, cerebral blood flow) versus vehicle” value is recorded as “no differences in physiologic parameters”. Further, in the data set on ICAM mRNA, the “ICAM mRNA compared with vehicle treated rats” value is recorded as “significant reduction in ICAM mRNA”. For the same compound, the “PPARγ-PPRE binding (densitometry), in words” value was “significantly increase PPARγ-PPRE binding” on PPARγ-PPRE binding; “increased DNA binding in both the ischemic and the non-ischemic hemispheres” on PPARγ-PPRE binding (listed as Rosiglitazone). Further, the “increase in LPL mRNA levels within the ischemic hemisphere” value in the data set with LPL mRNA came out at 254%.

Take `O=C(Nc1ccncc1)c1cc([N+](=O)[O-])ccc1Cl` [T0070907]: in data set [4] (T0070907 24 h before and at time of MCAO), the mean absolute infarction volume came to 176 mm³. Further, in data set [4] (panel B), the animals that died entry was “one animal”.
